Several values for one entry are separate records, joined by “and”; a condition that tells them apart may be missing. Equal values may be shown once.
What was measured:
[1] = tested on: PPARγ-null 3T3-L1 clones rescued with wild-type mPPARγ; assay: Insulin-stimulated glucose uptake in PPARγ-null 3T3-L1 clones rescued with wild-type mPPARγ; type: cell-based, mouse; conditions: for insulin-stimulated glucose uptake, Fig 1P left panel replicates: rescued with wild-type mPPARγ
Procedure: Gene editing was performed in 3T3-L1 preadipocytes using the clustered regularly interspaced short palindromic repeats (CRISPR)/Cas9 system. Two single-guide RNAs (sgRNA) (Appendix Table S5) targeting exon 6 of mouse Pparγ were designed using a web-based design tool (http://crispr.mit.edu/). These oligonucleotides were cloned into the pSurrogate reporter and pAll-Cas9.Ppuro vector obtained from Academia Sinica, Taiwan. The pSurrogate reporter contains an EGFP and an out-of-frame mCherry downstream of the sgRNA; the pAll-Cas9.Ppuro vector expresses Cas9 nuclease and sgRNA. Once a double-strand breaking at the target site in pSurrogate reporter plasmid was created by Cas9, insertions and deletions (indels) could be introduced at the cleaved site. The indels cause frameshifts and result in the expression of the mCherry gene. 3T3-L1 preadipocytes were co-transfected with pSurrogate reporter and pAll-Cas9.Ppuro vectors at 80-90% confluency using PolyJet™ transfection reagent (cat. no. SL100688, SignaGen Laboratories, USA). Two days after transfection, EGFP/mCherry double-positive cells were enriched by fluorescent-activated cell sorting. Single cells were isolated and expanded. The genomic DNA was amplified by PCR and sequenced to confirm the knockout cell lines. The primer sequences are shown in Appendix Table S5.
The mPPARγ C313A DNA sequence was amplified from pCMV6-Pparg C313A and subcloned into the pLVX-IRES-Neo vector with XhoI/NotI restriction sites. The lentiviral expression plasmids, pMD.G, and pCMVΔR8.91 (RNAi Core, Academia Sinica, Taiwan), were co-transfected into HEK293T cells. […] HSP70 was probed with an anti-HSP70 antibody (cat. no. ab45133, Abcam) as a loading control.
Differentiated 3T3-L1 cells were starved with serum-free DMEM containing 0.2% BSA (cat. no. A9647, Sigma-Aldrich). […] Uptake of 2DG was terminated by rapidly removing medium and washing with ice-cold PBS three times. Cells were lysed with 0.1% SDS, and the radioactivity was measured using a liquid scintillation counter. Insulin-mediated glucose uptake was calculated by subtracting insulin-treated glucose uptake with basal glucose uptake.

3T3-L1 adipocytes = assay: Intracellular 15-keto-PGE2 content of 3T3-L1 cells (LC-MS/MS); type: cell-based, mouse
Procedure: The lysate was centrifuged at 300 × g for 5 min to remove cellular debris. The supernatant was transferred to a new tube. The C18 SPE cartridge was sequentially activated with 2 mL methanol and 2 mL ddH2O. The lower-layer sample was transferred to the C18 SPE cartridge. Once the lysate passed the cartridge, the SPE cartridge was washed with 2 mL 15% methanol and 5 mL ddH2O. The sample was then eluted with 5 mL HPLC-degree methanol and aliquoted into new 2-mL tubes. The elute was air-dried using a SpeedVac system and stored at −80 °C. The dried samples were reconstituted with 60 μL methanol before analysis.

phospho-Akt = assay: Insulin signaling in vivo (phospho-Akt immunoblot); parameters: species or system mouse; conditions: 40 mg/kg/day ip, HFHSD-fed mice, vs vehicle
Procedure: To evaluate insulin signaling in vivo, mice were fasted overnight. Tissue was harvested 15 min after intraperitoneal insulin injection. The samples (perigonadal fat, inguinal fat, brown adipose tissue and liver) were extracted with RIPA buffer (50 mM Tris-HCl, pH 7.4, 2 mM ethylenediaminetetraacetic acid [EDTA]), 150 mM NaCl, 50 mM NaF, 1% Nonidet P-40, 1 mM phenylmethylsulfonyl fluoride [PMSF], 0.5% sodium deoxycholate, and 0.1% sodium dodecyl sulfate [SDS]) containing phosphatase inhibitor cocktail (cat. no. 04693132001, Roche) and homogenized. The homogenates were then centrifuged at 13,000 rpm for 10 min at 4 °C to remove debris. Samples were separated by SDS-polyacrylamide gel electrophoresis, transferred to polyvinylidene difluoride (PVDF) membrane, blocked with 3% BSA, and probed with anti-phospho-Akt antibody (cat. no. 4058, Cell Signaling) and anti-Akt antibody (cat. no. 9272, Cell Signaling), and then with HRP conjugated anti-rabbit IgG antibody (1:10,000; cat. no. GTX26721, GeneTex).

[2] = tested on: HFHSD-fed obese C57BL6/J mice; assay: Fasting glucose in HFHSD-fed mice; type: in vivo, mouse; parameters: Fasting glucose, Average / Fasting glucose (individual mouse): unit not given here; conditions: for Fasting glucose, Average / Fasting glucose (individual mouse): Figure 5K; for Fasting glucose, Average: 100 mg/kg/day; for Fasting glucose (individual mouse): BPRPT0245 group
Procedure: Ptgr2^+/+ and Ptgr2^−/− mice were created by the Transgenic Mouse Model Core Facility of the National Core Facility for Biopharmaceuticals, Ministry of Science and Technology, Taiwan and the Animal Resources Laboratory of National Taiwan University Centers of Genomic and Precision Medicine. C57BL6/J mice were purchased from National Laboratory Animal Center. All animal experiments were performed according to institutional ethical guidelines and were approved by the Institutional Animal Care and Use Committee (IACUC) of National Taiwan University Medical College (IACUC No.: 20140456). All mice were housed under standard conditions at 23 °C and 12/12 h. light/dark (7 AM–7 PM) cycle in animal centers of the National Taiwan University Medical College, which is accredited by the Association for Assessment and Accreditation of Laboratory Animal Care International (AAALAC). Mice were provided shelters and sticks weekly. We used adequate anesthetic procedure to reduce pain, suffering and distress according to our animal center regulation. We reported expected or unexpected adverse events to the veterinarian of our animal center. The humane endpoints include 20% weight loss, rough hair coat, hunched posture, lethargy or persistent, or any condition interfering with eating or drinking. Eight-week-old male mice were fed on either a high-fat high-sucrose diet (HFHSD) (cat. no. D12331, Research Diets) or a regular chow diet (cat no. 5001, Lab Diet). BPRPT0245 was dissolved 3% dimethylacetamide and 10% cremophor in water and administered daily to HFHSD-fed obese C57BL6/J mice by oral gavage (100 mg/kg/day).

## CCCCCC(=O)CC[C@H]1[C@H](O)CC(=O)[C@@H]1C/C=C\CCCC(=O)O [13,14-dihydro-15-keto-PGE2]
[1]; 1314-dihydro-15kPGE2 5
  insulin-stimulated glucose uptake, Fig 1P left panel replicates: 0.5765 and 0.8817 and 0.585 and 1.089

## CCCCCC(=O)/C=C/[C@H]1[C@H](O)CC(=O)[C@@H]1C/C=C\CCCC(=O)O [15-keto-PGE2, 15-keto-prostaglandin E2]
3T3-L1 adipocytes; exogenously added 15-keto-PGE2 10–20 μM, 3T3-L1 adipocytes
  increase of intracellular 15-keto-PGE2 levels: 1.25 to 1.78 fold
[1]; 15kPGE2 1
  insulin-stimulated glucose uptake, Fig 1P left panel replicates: 0.8065 and 0.6857 and 0.06677 and 0.8595
[1]; 15kPGE2 5
  insulin-stimulated glucose uptake, Fig 1P left panel replicates: 1.281 and 2.22 and 0.9527 and 1.646
[1]; 15kPGE2 10
  insulin-stimulated glucose uptake, Fig 1P left panel replicates: 2.206 and 2.06 and 1.8139 and 2.125
[1]; clone #1296
  insulin-stimulated glucose uptake, PPARγ-null clone rescued with wild-type mPPARγ: enhanced insulin-stimulated glucose uptake in clone # 1296 when rescued with wild-type mPPARγ
phospho-Akt
  phospho-Akt after insulin injection (immunoblot): increased phospho-Akt in perigonadal fat, inguinal fat, brown adipose tissue, and liver

## Cc1[nH]c2nc(C(C)N3CCN(c4ccccc4)CC3)nn2c(=O)c1Cc1ccc(F)cc1 (stereo not drawn) [BPRPT0245]
3T3-L1 adipocytes; differentiated 3T3-L1 adipocytes treated with BPRPT0245
  intracellular 15-keto-PGE2 concentrations: increased intracellular 15-keto-PGE2 concentrations in a dose-dependent manner
[2]; 100 mg/kg/day oral, HFHSD-fed mice, vs vehicle
  fasting plasma glucose: lowered fasting plasma glucose
[2]; week 0
  Fasting glucose, Average: 172.4
  Fasting glucose (individual mouse): 140 and 191 and 194 and 229 and 230 and 148 and 190 and 111 and 179
[2]; week 2
  Fasting glucose, Average: 215
  Fasting glucose (individual mouse): 178 and 220 and 216 and 291 and 182 and 199 and 225 and 148
[2]; week 4
  Fasting glucose, Average: 172.4
  Fasting glucose (individual mouse): 162 and 198 and 190 and 178 and 194 and 163 and 177
[2]; week 6
  Fasting glucose, Average: 168.6
  Fasting glucose (individual mouse): 151 and 215 and 171 and 164 and 188 and 139 and 181
[2]; week 8
  Fasting glucose, Average: 182.6
  Fasting glucose (individual mouse): 164 and 212 and 172 and 202 and 171 and 198 and 219
[2]; week 10
  Fasting glucose, Average: 183.2
  Fasting glucose (individual mouse): 224 and 198 and 153 and 169 and 162 and 150 and 171
[2]; week 12
  Fasting glucose, Average: 184.933
  Fasting glucose (individual mouse): 187 and 219 and 140 and 175 and 200 and 156 and 161 and 177
[2]; week 14
  Fasting glucose, Average: 181.467
  Fasting glucose (individual mouse): 220 and 210 and 169 and 202 and 174 and 149 and 142
[2]; week 16
  Fasting glucose, Average: 186.667
  Fasting glucose (individual mouse): 212 and 199 and 167 and 164 and 191 and 183 and 171
[2]; week 18
  Fasting glucose, Average: 173.933
  Fasting glucose (individual mouse): 179 and 178 and 134 and 146 and 197 and 201 and 147 and 181 and 202
[2]; week 20
  Fasting glucose, Average: 159.8
  Fasting glucose (individual mouse): 179 and 154 and 153 and 170 and 174 and 220 and 131 and 171 and 134
[2]; week 22
  Fasting glucose, Average: 158.933
  Fasting glucose (individual mouse): 195 and 156 and 123 and 149 and 148 and 163 and 132 and 201 and 161
[2]; week 24
  Fasting glucose, Average: 164.4
  Fasting glucose (individual mouse): 119 and 164 and 166 and 168 and 204 and 174

## Cc1[nH]c2nc(C(C)N3CCN(c4ccccc4)CC3)nn2c(=O)c1Cc1ccc(F)cc1 (stereo not drawn) [BPRPT245]
[2]; week 0
  Fasting glucose, Average: 172.4
[2]; week 2
  Fasting glucose, Average: 215
[2]; week 4
  Fasting glucose, Average: 172.4
[2]; week 6
  Fasting glucose, Average: 168.6
[2]; week 8
  Fasting glucose, Average: 182.6
[2]; week 10
  Fasting glucose, Average: 183.2
[2]; week 12
  Fasting glucose, Average: 184.933
[2]; week 14
  Fasting glucose, Average: 181.467
[2]; week 16
  Fasting glucose, Average: 186.667
[2]; week 18
  Fasting glucose, Average: 173.933
[2]; week 20
  Fasting glucose, Average: 159.8
[2]; week 22
  Fasting glucose, Average: 158.933
[2]; week 24
  Fasting glucose, Average: 164.4

— article PMC12081876, “Identification of PTGR2 inhibitors as a new therapeutic strategy for diabetes and obesity” (EMBO Molecular Medicine, 2025)
